SMILES strings stand for the structures.

Data set [1] concerns luciferase (luc) expressing TRAMP-C1 cells. Put plainly: TRAMP-C1 cell survival after single dose irradiation (bioluminescence, 96-well). The class given is cell-based, mouse. The following applies: for survival (% of bioluminescence before irradiation): single 8 Gy dose, drugs from 4 days after irradiation for 7 days, cinaciguat, p62 inducer, enzalutamide 1 μM, 8-bromo-cGMP 100 μM, DETA-NONOate 100 M (so in the source); for effect on irradiation-induced cell death: single dose 8 Gy irradiation, TRAMP-C1 cells, preliminary studies. Here is the method:
FIG. 4. The effect of single-dose and fractionated irradiation on TRAMP-C1 cell survival. A) Cells were plated at 5,000 cells/well in 96-well plates and subjected to single dose irradiation of 0 or 8 Gy. Four days following irradiation cells were treated with cinaciguat (1 μM), p62 inducer (1 μM), enzalutamide (1 μM), DETA-NONOate ([…]), 8-bromo-cGMP (100 μM) or vehicle (0.1% DMSO) for 1 week. Bioluminescence was measured before and after irradiation, and following drug treatment. […] B) Determination of 6 Gy as the optimal 5-day fractionated radiation dose based on cell survival.
Effect of drugs targeting NO·-cGMP pathway, mitophagy and AR signaling on TRAMP-C1 survival after single dose irradiation and determination of optimal fractionated irradiation protocol. To assess whether promoting NO·-cGMP signaling, induction of mitophagy or AR inhibition would enhance the effect of radiation treatment, the effect of these different drugs on cultured luciferase (luc) expressing TRAMP-C1 cells was examined in a 96-well plate format. Bioluminescence was assessed before irradiation after which the cells were exposed to a single 8 Gy radiation dose. Four days after irradiation cells were treated with the different drugs for a further 7 days. […] To determine the optimal fractionated irradiation dosing protocol, fractionated irradiation protocols were examined in cultured cells over a 5-day period. […] Therefore, 6 Gy per day for 5 days can be used as a dosing protocol.
Cell culture. Luciferase expressing TRAMP-C1 cells may be maintained in DMEM supplemented with 10% FBS, 1% PenStrep, 5 μg/ml insulin and 10 nM dehydroisoandrosterone and used at 10-15 passages. For experiments in Examples 1-3 cells may be plated at 5,000 cells/well in 96-well plates.
Bioluminescence in vitro and in vivo imaging. Cells may be treated with 150 μM luciferin D and immediately placed in Tecan SPECTRA Fluor Plus plate reader for bioluminescence measurement. Readings may be averaged for each group of cells (n≥ 8) and background (empty well readings) subtracted. Mice may be anesthetized with avertin (300 mg/kg, IP), depilated and injected with 150 mg/kg luciferin D, IP. They may be […] in a BioRad ChemiDoc MP imaging system in the supine position. Bioluminescence may be imaged for 600 sec using the Chemi Hi sensitivity protocol, intensity expressed colorimetrically, superimposed over images of the mice.

Data set [2] relates to orthotopic TRAMP-C1 tumors. Put plainly: Orthotopic TRAMP-C1 tumors after fractionated irradiation, prostate tissue weight. The following applies: 2 Gy fractions x 5 days; after one week osmotic pump 1 mg/kg/day for 14 days; vs irradiation alone. The class given is in vivo, C57BI/6 mice. Here is the method: FIG. 5. TRAMP-C1 orthotopic tumors and the effects of irradiation. A) TRAMP-C1 cells (10^7 cells/100 μl) were injected bilaterally into the ventrolateral prostatic lobes to create the orthotopic tumor mouse model. […] B) TRAMP-C1 tumor in a non-irradiated mouse 5 weeks after cell injection. C) Tumor following fractionated irradiation (2 Gy×5 days, starting 4 weeks post injection). D) Prostate wet weight in control, non-irradiated and irradiated tumor bearing animals.
FIG. 6. Bioluminescence imaging of prostate tumors and prostate size assessment following treatments. A) Image of colorimetrically expressed bioluminescence intensity superimposed over the mouse image. B) Prostates were excised from non-injected control, injected non-irradiated and injected irradiated (2 Gy×5 days) mice with or without treatments (P62 inducer or cinaciguat, 1 mg/kg/day for 2 weeks by ALZET pumps starting 1 week post irradiation). C) Timeline of tumor growth based on preliminary data.
Development of orthotopic TRAMP-C1 tumors in C57BI/6 mice and the effect of fractionated irradiation. […] At the conclusion of the treatment, tumor weights were evaluated. Without any intervention (drug or irradiation), there was a significant increase in tumor mass evaluated as total prostate tissue weight (FIG. 6 (B)).

Data set [3] has as its system sGCα1, Bcl-2/BAX and NF-κβ. As to the kind of experiment: Immunolocalization of sGCα1, Bcl-2/BAX and NF-κβ in orthotopic TRAMP-C1 tumor sections. The following applies: fractionated irradiation plus 1 mg/kg/day for two weeks. It is filed as in vivo, mouse. The method, then:
FIGS. 7A and 7B. Alterations in the sGCα1, Bcl-2/BAX ratio and NF-κβ nuclear localization in prostate tumors from non-irradiated mice, and irradiated mice treated with cinaciguat or p62 inducer based on immunolabeling intensity. A)-C) sGC α1 immunolabeling in A) non-irradiated orthotopic TRAMP-C1 tumors. B) orthotopic tumor from mouse receiving fractionated irradiation followed by two weeks of cinaciguat (1 mg/kg/day) treatment. C) orthotopic tumor from mouse receiving fractionated irradiation followed by two weeks of p62 mitophagy inducer (1 mg/kg/day) treatment. D)-F) Immunolabeling for Bcl-2 of D) non-irradiated orthotopic TRAMP-C1 tumor. E) orthotopic tumor from mouse receiving fractionated irradiation and cinaciguat treatment. F) orthotopic tumor from mouse receiving fractionated irradiation and p62 mitophagy inducer treatment. G-I) Immunolabeling for NF-κβ of G) non-irradiated orthotopic TRAMP-C1 tumor. H) orthotopic tumor from mouse receiving fractionated irradiation and cinaciguat treatment. I) orthotopic tumor of mouse receiving fractionated irradiation and p62 mitophagy inducer treatment. J) Bar chart for ratio of sGCα1 positive area to total cell area. K) Bar chart of Bcl-2 positive staining versus BAX positive staining in sequential sections from each group. […] Green fluorescence—immunolabeling, Blue—DAPI, nuclei. […]

Data set [4] can be described thus: Blood pressure and heart rate under cinaciguat treatment. It is filed as in vivo, mice.
In data set [5] the test system is mouse bladder with chronic radiation cystitis. As to the kind of experiment: Chronic radiation cystitis in mice: cystometry (CMG) and bladder collagen staining. It is filed as in vivo. The source says:
FIG. 12 Effects of cinaciguat on a mouse bladder with chronic radiation cystitis. A) Cystometry (CMG), non-irradiated mouse. B) CMG, 9 weeks following bladder irradiation (10 Gy). C) CMG, irradiation+daily gavage for 2 weeks with cinaciguat. D) Active and (E-F) passive length-tensions from irradiated+vehicle (red) vs. irradiated+cinaciguat (blue) bladder strips. G-I) Bladder cross-sections stained with Verhoeff Van Gieson solution; collagen is stained pink. J) Collagen, % area of the bladder wall, N=4. K) bladder weight in mg, control vs. irradiated (irr)>9 wks; N=5 ea.
Furthermore, irradiation decreases bladder weight by approximately 30% that could be attributed to muscle atrophy (FIG. 12 (K)).

For data set [6] the following is noted: given via i.v. drip; cited from earlier work.
The test system of data set [7] is bladder of CyB5R3 smooth muscle conditional knockout mice. The following applies: acute intraperitoneal injection; cited from earlier work.
Data set [8] deals with Bcl-2/BAX ratio. The following applies: aged mice, reversal of benign prostatic hyperplasia; previously demonstrated; cited from earlier work.

For the compound `Nc1nc2c(nc(Br)n2[C@@H]2O[C@@H]3COP(=O)(O)O[C@H]3[C@H]2O)c(=O)[nH]1` [8-bromo-cGMP], in data set [1], the “survival (% of bioluminescence before irradiation)” value was 65±7% and the “effect on irradiation-induced cell death” value is reported as “did not enhance irradiation-induced cell death”.
For `NCCN(CCN)/[N+]([O-])=N/O` [DETA-NoNoate], in data set [1], the “survival (% of bioluminescence before irradiation)” value came to 62±13%. The “effect on irradiation-induced cell death” value is given as “not” in data set [1] (listed as DETA NoNoate) and “did not enhance irradiation-induced cell death” in data set [1] (listed as DETA-NONOate).
`O=C(O)CCCCN(CCc1ccccc1OCc1ccc(CCc2ccccc2)cc1)Cc1ccc(C(=O)O)cc1` [cinaciguat, 4-({(4-carboxybutyl)[2-(2-{[4-(2-phenylethyl)phenyl]methoxy}phenyl)ethyl]amino}methyl) benzoic acid]: in data set [1], the “survival (% of bioluminescence before irradiation)” value is listed as 31±13% and the “effect on irradiation-induced cell death” value is “potentiated”. Besides, the “effect on irradiation-induced cell death” value in data set [1] (listed as Cinaciguat) was “most effective in promoting irradiation-induced tumor cell death”. In addition, the “tumor mass evaluated as total prostate tissue weight” value in data set [2] is recorded as “marked decrease compared to irradiation alone”. Further, the “sGCα1, Bcl-2/BAX and NF-κβ immunolabeling in tumor” value in data set [3] is on record as “all three markers were reduced”. Moreover, the “effect on blood pressure” value in data set [4] (infused post irradiation 0.1-1 mg/kg/day for 28 days via osmotic pumps, preliminary data) is listed as “without adversely affecting blood pressure”. Also, the “effects on blood pressure and heart rate” value in data set [4] (once-a-day oral 10 mg/kg) is “only transient effects on blood pressure and heart rate”. Further, in data set [5] (chronically irradiated mice, Verhoeff Van Gieson staining), the “bladder wall structure (collagen staining)” value is given as “bladder wall structure similar to non-irradiated controls”. Besides, the CMG profile entry in data set [5] (daily gavage 10 mg/kg/day starting 7 weeks post irradiation (10 Gy), 2 weeks) is given as “normalized the CMG profile”. Moreover, the “collagen content of bladder wall” value in data set [5] (doubling of collagen 9 weeks post irradiation) was “reversed”. The “blood pressure effect (hypotension)” value in data set [6] is on record as “induced hypotension”. Moreover, in data set [7], the “intercontractile interval (ICI)” value was “increased ICI” and the non-voiding contractions result is “eliminated non-voiding contractions”. In addition, the Bcl-2/BAX ratio result in data set [8] is on record as “decreasing the Bcl-2/BAX ratio”.
Consider `CNC(=O)c1ccc(N2C(=S)N(c3ccc(C#N)c(C(F)(F)F)c3)C(=O)C2(C)C)cc1F` [enzalutamide], for which, in data set [1], the “survival (% of bioluminescence before irradiation)” value is 80±11%; the “effect on irradiation-induced cell death” value is “protected the cells and not”.
